Test [1] concerns Endogenous Total ATXN3 (tATXN3) Protein. Put plainly: Endogenous Total ATXN3 (tATXN3) Protein Assay (MSD immunoassay of cell lysates). The settings on record: cells incubated with compound 48 h; 7-point concentration curve; MSD plate readout. The test is classed as cell-based. Here is the method: Meso Scale Discovery (MSD) 96-well or 384-well plates were coated overnight at 4° C. with Ataxin 3 mouse monoclonal antibody (Invitrogen, MA3-082) at a concentration of […] in PBS (30 μL per well). Plates were then washed three times with 300 μL wash buffer (0.05% TWEEN®-20, polyethylene glycol sorbitan monolaurate, in PBS) and blocked (Meso Scale Diagnostics, R93BA-1; 5% BSA in PBS) for 2 h at room temperature with rotational shaking and then washed three times with wash buffer.
(§1) Test compounds were serially diluted 3.16-fold in 100% DMSO to generate a 7-point concentration curve. Aliquots of 0.5 μL of diluted compounds were transferred to a 96-well flat bottom plate by a liquid handler. An aliquot of 0.5 μL DMSO was also transferred to separate wells and used as controls. Duplicate samples were set up for each compound concentration and for the DMSO control.
Cells were thawed and incubated in cell culture media (DMEM, 10% FBS, and 1% antibiotic cocktail) for 72 h. Cells were trypsinized, counted, and re-suspended to a concentration of 100,000 cells/mL in cell culture media. A 100 μL aliquot of the cell suspensions were plated at 10,000 cells per well in the compound containing 96 well microtiter plate and incubated for in a cell culture incubator (37° C., 5% CO2, 100% relative humidity). After 48 h, the medium was removed and 50-100 μL of lysis buffer (Meso Scale Diagnostics, R60TX-2) containing 1× halt protease inhibitor cocktail of (Thermo Scientific, Halt™ Protease Inhibitor Cocktail, 78430) per well was added to cells to provide a “cell lysate”. The plate was placed on a shaker at 4° C. for 30 minutes, then stored at −80° C.
Cell lysate samples (25 μL) were transferred to the antibody-coated MSD plate and incubated overnight at 4° C. After removal of the lysates, the plate was washed three times with wash buffer, and 25 μL of Ataxin 3 recombinant rabbit monoclonal antibody (Invitrogen, #702788) secondary antibody (diluted to 0.25 μg/mL in 0.05% TWEEN®-20 in blocking buffer) was added to each well and incubated with shaking for 1-2 h at room temperature. Following incubation with the secondary antibody, the wells were rinsed with wash buffer and then 25 μL of Anti Rabbit Antibody Goat SULFO-TAG Labeled (Meso Scale Diagnostics, R32AB-1) detecting antibody (diluted to 0.25 μg/mL in 0.05% TWEEN®-20 in blocking buffer) was added to each well and incubated with shaking for 1 h at room temperature. After rinsing three times with wash buffer, 150 μL of Read Buffer T with surfactant (tris-based buffer containing tripropylamine, Meso Scale Diagnostics, R92TC-1) were added to each empty well, and the plate was imaged on a SI 6000 imager (MSD) according to manufacturers' instructions provided for 96- or 384-well plates.

Test [2] relates to ATXN3 Pre-mRNA (exon 4 skipping). The test is described as follows: RT-qPCR Assay to Quantify Exon 4 Skipping in ATXN3 Pre-mRNA in Cells. The test is classed as cell-based. The settings on record: cells incubated with compound 24 h, normalised to GAPDH, 7-point concentration curve. Here is the method:
as §1
Cells were thawed and incubated in cell culture media (DMEM, 10% FBS, and 1% antibiotic cocktail) for 72 h. Cells were trypsinized, counted, and re-suspended to a concentration of 100,000 cells/mL in cell culture media. A 100 μL aliquot of the cell suspensions were plated at 10,000 cells per well in the compound containing 96 well microtiter plate and incubated for in a cell culture incubator (37° C., 5% CO2, 100% relative humidity).
After 24 h, media was aspirated from the cells and 50 μL of the RCL2 lysis buffer (10 mM Tris-HCL pH 7.4, 150 mM NaCl, 0.33% IGEPAL® CA-630) was added to each well and incubated at room temperature for 1 min. Chilled nuclease free water (50 μL per well) was added and the plates were immediately transferred on ice. After 1 min on ice, plates were frozen at −80° C. overnight.
Preparation of RT-qPCR Reaction Mixture:
An aliquot of 2 μL/well of the cell lysates was transferred using the liquid handler to the Armadillo 384-Well PCR plate containing 8 μL/well of the RT-qPCR reaction mixture that was prepared as detailed above. The plates were then sealed with MicroAmp™ Optical Adhesive Film followed by spinning down for 1 min and placed in the CFX384 thermocycler (BioRad).
The RT-qPCR was carried out at the following temperatures for the indicated time: • Step 1: 48° C. (30 min) • Step 2: 95° C. (10 min) • Step 3: 95° C. (15 sec) • Step 4: 60° C. (1 min); then, repeated Steps 3 and 4 for a total of 40 cycles.
The percent exon 4 skipping was calculated for each dose of compound treatment using Equations 1 and 2.
Data were fit to a dose response curve and the IC50 was interpolated using XLfit® statistical and curve fitting package.
An IC50 value between >2.0 μM and ≤3.0 μM is indicated by one star (*). […] IC50 value between >0.5 μM and ≤1.0 μM is indicated by four stars (****). An IC50 value ≤0.5 μM is indicated by five stars (*****).
In general terms: Real-time PCR tracks product formation cycle by cycle.

In general, IC50 refers to the concentration that inhibits the measured activity by half. Consider `Cc1c(C[C@H](C)N)sc2c(NCc3ncccc3F)nc(Cl)nc12` [Cpd 59, 6-[(2S)-2-aminopropyl]-2-chloro-N-[(3-fluoropyridin-2-yl)methyl]-7-methylthieno[3,2-d]pyrimidin-4-amine], for which the IC50 is 1.5 to 2 µM in test [1] and 1 to 1.5 µM in test [2].

Turning to `Cc1c(C[C@H](C)N)sc2c(NCc3cccnc3F)nc(Cl)nc12` [Cpd 60, 6-[(2S)-2-aminopropyl]-2-chloro-N-[(2-fluoropyridin-3-yl)methyl]-7-methylthieno[3,2-d]pyrimidin-4-amine], the half-inhibitory concentration (IC50) in test [1] was above 2 µM; in test [2] it was 2 to 3 µM.

On to `CC[C@H](N)Cc1sc2c(NCc3ccns3)nc(Cl)nc2c1C` [Cpd 62, 6-[(2S)-2-aminobutyl]-2-chloro-7-methyl-N-[(1,2-thiazol-5-yl)methyl]thieno[3,2-d]pyrimidin-4-amine], for which the IC50 in test [1] and in test [2] was at most 0.5 µM throughout.

On to `Cc1c(C[C@H](C)N)sc2c(NCc3c(F)cncc3F)nc(Cl)nc12` [Cpd 64, 6-[(2S)-2-aminopropyl]-2-chloro-N-[(3,5-difluoropyridin-4-yl)methyl]-7-methylthieno[3,2-d]pyrimidin-4-amine], for which the IC50 fell in the range of 1 to 1.5 µM in test [1] and 0.5 to 1 µM in test [2].

In the case of `Cc1c(C[C@H](C)CO)sc2c(NCc3ccco3)nc(Cl)nc12` [Cpd 66, (2S)-3-(2-chloro-4-{[(furan-2-yl)methyl]amino}-7-methylthieno[3,2-d]pyrimidin-6-yl)-2-methylpropan-1-ol], the “IC50 (average, total ATXN3 protein)” value in test [1] is “inactive”. Besides, the “IC50 (exon 4 skipping in ATXN3 pre-mRNA)” value in test [2] is “inactive”.

Consider `Cc1c(CCCN)sc2c(NCc3ccco3)nc(Cl)nc12` [Cpd 67, 6-(3-aminopropyl)-2-chloro-N-[(furan-2-yl)methyl]-7-methylthieno[3,2-d]pyrimidin-4-amine], for which, in test [1], the “IC50 (average, total ATXN3 protein)” value was “inactive”. Further, the “IC50 (exon 4 skipping in ATXN3 pre-mRNA)” value in test [2] is “inactive”.

As for `C[C@H](N)Cc1sc2c(NCc3ccncc3F)nc(Cl)nc2c1Br` [Cpd 68, 6-[(2S)-2-aminopropyl]-7-bromo-2-chloro-N-[(3-fluoropyridin-4-yl)methyl]thieno[3,2-d]pyrimidin-4-amine], the IC50 in test [1] and in test [2] was at most 0.5 µM each time.

Consider `Cc1c(C[C@H](C)CN)sc2c(NCc3ccco3)nc(Cl)nc12` [Cpd 70, 6-[(2S)-3-amino-2-methylpropyl]-2-chloro-N-[(furan-2-yl)methyl]-7-methylthieno[3,2-d]pyrimidin-4-amine], for which the values for the IC50 in test [1] and in test [2] were 1 to 1.5 µM and 0.5 to 1 µM, respectively.

Consider `Cc1c(C[C@@H](C)CN)sc2c(NCc3ccco3)nc(Cl)nc12` [Cpd 72, 6-[(2R)-3-amino-2-methylpropyl]-2-chloro-N-[(furan-2-yl)methyl]-7-methylthieno[3,2-d]pyrimidin-4-amine], for which the IC50 is above 2 µM in test [1] and 1.5 to 2 µM in test [2].

Take `Cc1c(C[C@H](C)N)sc2c(NCc3ncc[nH]3)nc(Cl)nc12` [Cpd 73, 6-[(2S)-2-aminopropyl]-2-chloro-N-[(1H-imidazol-2-yl)methyl]-7-methylthieno[3,2-d]pyrimidin-4-amine]: in test [1], the “IC50 (average, total ATXN3 protein)” value was “inactive”. Also, the “IC50 (exon 4 skipping in ATXN3 pre-mRNA)” value in test [2] is “inactive”.

As for `Cc1c(C[C@H](C)N)sc2c(NCc3cncs3)nc(Cl)nc12` [Cpd 74, 6-[(2S)-2-aminopropyl]-2-chloro-7-methyl-N-[(1,3-thiazol-5-yl)methyl]thieno[3,2-d]pyrimidin-4-amine], the concentration for half-maximal inhibition (IC50) fell in the range of 1.5 to 2 µM in test [1] and 1 to 1.5 µM in test [2].

As for `Cc1c(C[C@H](C)N)sc2c(NCc3cnco3)nc(Cl)nc12` [Cpd 75, 6-[(2S)-2-aminopropyl]-2-chloro-7-methyl-N-[(1,3-oxazol-5-yl)methyl]thieno[3,2-d]pyrimidin-4-amine], the IC50 is 1 to 1.5 µM in test [1] and 0.5 to 1 µM in test [2].

For the compound `CCc1c(C[C@H](C)N)sc2c(NCc3ccco3)nc(Cl)nc12` [Cpd 77, 6-[(2S)-2-aminopropyl]-2-chloro-7-ethyl-N-[(furan-2-yl)methyl]thieno[3,2-d]pyrimidin-4-amine], the concentration for half-maximal inhibition (IC50) in test [1] and in test [2] was at most 0.5 µM throughout.

Regarding `Cc1c(C[C@H](C)NC2CCC2)sc2c(NCc3ccco3)nc(Cl)nc12` [Cpd 78, 2-chloro-6-[(2S)-2-(cyclobutylamino)propyl]-N-[(furan-2-yl)methyl]-7-methylthieno[3,2-d]pyrimidin-4-amine], the values for the IC50 in test [1] and in test [2] were 1.5 to 2 µM and 1 to 1.5 µM, respectively.

On to `Clc1nc(NCc2cccs2)c2scc(Br)c2n1` [Cpd 80, 7-bromo-2-chloro-N-[(thiophen-2-yl)methyl]thieno[3,2-d]pyrimidin-4-amine], for which the “IC50 (average, total ATXN3 protein)” value in test [1] was “inactive”. The “IC50 (exon 4 skipping in ATXN3 pre-mRNA)” value in test [2] was “inactive”.

Regarding `Cc1c(C[C@H](C)N)sc2c(NCc3ccnn3C)nc(Cl)nc12` [Cpd 81, 6-[(2S)-2-aminopropyl]-2-chloro-7-methyl-N-[(1-methyl-1H-pyrazol-5-yl)methyl]thieno[3,2-d]pyrimidin-4-amine], in test [1], the “IC50 (average, total ATXN3 protein)” value is “inactive”. Moreover, the “IC50 (exon 4 skipping in ATXN3 pre-mRNA)” value in test [2] was “inactive”.

Consider `C[C@H](N)Cc1sc2c(NCc3cccs3)nc(Cl)nc2c1Br` [Cpd 82, 6-[(2S)-2-aminopropyl]-7-bromo-2-chloro-N-[(thiophen-2-yl)methyl]thieno[3,2-d]pyrimidin-4-amine], for which the IC50 in test [1] and in test [2] was at most 0.5 µM in each case.

For `C[C@H](N)Cc1sc2c(NCc3cccs3)nc(Cl)nc2c1C1CC1` [Cpd 86, 6-[(2S)-2-aminopropyl]-2-chloro-7-cyclopropyl-N-[(thiophen-2-yl)methyl]thieno[3,2-d]pyrimidin-4-amine], the IC50 in test [1] and in test [2] was at most 0.5 µM each time.

Consider `C[C@H](N)Cc1sc2c(NCc3cccs3)nc(Cl)nc2c1-c1ccc(Cl)cc1` [Cpd 88, 6-[(2S)-2-aminopropyl]-2-chloro-7-(4-chlorophenyl)-N-[(thiophen-2-yl)methyl]thieno[3,2-d]pyrimidin-4-amine], for which, in test [1], the “IC50 (average, total ATXN3 protein)” value was “inactive”. Also, the “IC50 (exon 4 skipping in ATXN3 pre-mRNA)” value in test [2] is “inactive”.

On to `Cc1c(C[C@H](C)N)sc2c(NCc3sccc3F)nc(Cl)nc12` [Cpd 90, 6-[(2S)-2-aminopropyl]-2-chloro-N-[(3-fluorothiophen-2-yl)methyl]-7-methylthieno[3,2-d]pyrimidin-4-amine], for which the IC50 in test [1] and in test [2] was at most 0.5 µM in each case.

Take `Cc1c(C[C@H](C)N)sc2c(NCc3nc(F)cs3)nc(Cl)nc12` [Cpd 92, 6-[(2S)-2-aminopropyl]-2-chloro-N-[(4-fluoro-1,3-thiazol-2-yl)methyl]-7-methylthieno[3,2-d]pyrimidin-4-amine]: the 50% inhibitory concentration (IC50) in test [1] and in test [2] was at most 0.5 µM throughout.

For the origin of these results see patent US20240043444A1, “METHODS FOR TREATING SPINOCEREBELLAR ATAXIA TYPE 3” (PTC Therapeutics, Inc., priority 2021, published 2024).
